In data set [1] the target is T1, aroAJ. sp (Janibacter sp. YB324, UniProt Z9JWC7BZZ5).
T1 construct: pGEX-6p-1 BamHI/EcoRI, E. coli BL21(DE3); GST tag removed by 3C protease; HTCC2649
Nature of the data set: malachite green phosphate release, Lineweaver-Burk. It counts as biochemical. The following applies: competitive with respect to PEP; PEP 0.067-0.5 mM, S3P 1 mM; glyphosate 0-5 mM; 50 mM Hepes pH 7.0, 28 °C, KCl present. The source says: malachite green phosphate release, Lineweaver-Burk on aroAJ. sp

Data set [2] has as its target T2, aroAE. coli (Escherichia coli, UniProt P0A6D3).
T2 construct: gene aroA; full length; pGEX-6p-1 BamHI/EcoRI, E. coli BL21(DE3); GST tag removed by 3C protease; similar size to aroAJ. sp (47 kDa on gel)
Nature of the data set: malachite green phosphate release, Lineweaver-Burk. It counts as biochemical. The conditions noted are these: read-out: Ki ^c. The source says: malachite green phosphate release, Lineweaver-Burk on aroAE. coli

Data set [3] concerns the target T2, aroAE. coli. In words: malachite green phosphate release, dose-response fit. Type of data set: biochemical. From the text: malachite green phosphate release, dose-response fit on aroAE. coli
The target of data set [4] is T1, aroAJ. sp. The description is as above. Type of data set: biochemical. The conditions noted are these: 1 mM PEP, 1 mM S3P; glyphosate 0.0001-100 mM; 50 mM Hepes pH 7.0, 28 °C, KCl present. The source says:
malachite green phosphate release, dose-response fit on aroAJ. sp

The subject of data set [5] is O=C(O)C1=C[C@@H](OP(=O)(O)O)[C@@H](O)[C@H](O)C1. Nature of the data set: purified protein. The conditions noted are these: S3P 0.05-1 mM, PEP fixed 1.0 mM, 50 mM Hepes pH 7.0, 28 °C.
The next data set has as its system C=C(OP(=O)(O)O)C(=O)O. In words: purified protein. The following applies: PEP 0.05-1 mM, S3P fixed 1.0 mM, 50 mM Hepes pH 7.0, 28 °C.

T2 sequence (P0A6D3 whole entry): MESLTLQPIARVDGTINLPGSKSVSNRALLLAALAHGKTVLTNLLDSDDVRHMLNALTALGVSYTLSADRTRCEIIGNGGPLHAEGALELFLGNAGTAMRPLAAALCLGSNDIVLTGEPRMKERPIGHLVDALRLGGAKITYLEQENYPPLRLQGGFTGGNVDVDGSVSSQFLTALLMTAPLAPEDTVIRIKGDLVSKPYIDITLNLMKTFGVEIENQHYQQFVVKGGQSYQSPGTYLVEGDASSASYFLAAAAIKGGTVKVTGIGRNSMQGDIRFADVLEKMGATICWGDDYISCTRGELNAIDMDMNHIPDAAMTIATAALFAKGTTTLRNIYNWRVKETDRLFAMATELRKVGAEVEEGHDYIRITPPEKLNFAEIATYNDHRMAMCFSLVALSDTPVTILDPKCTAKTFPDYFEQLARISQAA

A word on the Ki: it is the equilibrium dissociation constant of an inhibitor or competing ligand from its target. As usually defined, the IC50 is the midpoint of a concentration-inhibition curve. As to `O=C(O)CNCP(=O)(O)O` [glyphosate], the figures for the inhibition constant Ki on aroAJ. sp [1] and at aroAE. coli [2] were 373 ± 50 µM and 0.9 ± 0.09 µM, respectively. The values for the IC50 against aroAE. coli [3] and on aroAJ. sp [4] were 40 ± 10 µM and 3600 ± 200 µM, respectively.

A word on the Km: it is the concentration of substrate that gives half-maximal velocity. Take aroAE. coli (Escherichia coli K-12): the Km in data set [5] was determined as 115 ± 10 µM; in the data set with C=C(OP(=O)(O)O)C(=O)O, 60 ± 7 µM.

(Values after PMC4709569, “A Novel Naturally Occurring Class I 5-Enolpyruvylshikimate-3-Phosphate Synthase from Janibacter sp. Confers High Glyphosate Tolerance to Rice” (Scientific Reports, 2016).)
